In PubChem BioAssay (NCI):
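Five concentrations, 48 hours, 96-well plates. GI50 is the concentration that inhibits growth by half. TGI marks complete inhibition of growth.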

Tests used:
Assay in all cases: NCI anticancer screen, dose series, 48 h
OVCAR-5 ovarian = tested on: OVCAR-5 ovarian
OVCAR-8 ovarian = tested on: OVCAR-8 ovarian
M14 melanoma = tested on: M14 melanoma
SNB-75 CNS = tested on: SNB-75 CNS
SN12C renal = tested on: SN12C renal
UACC-257 melanoma = tested on: UACC-257 melanoma
NCI-H23 lung = tested on: NCI-H23 lung
NCI-H522 lung = tested on: NCI-H522 lung
IGROV1 ovarian = tested on: IGROV1 ovarian
SK-OV-3 ovarian = tested on: SK-OV-3 ovarian

SMILES | GI50 (OVCAR-5 ovarian) [µM] | TGI (OVCAR-5 ovarian) [µM] | GI50 (OVCAR-8 ovarian) [µM] | TGI (OVCAR-8 ovarian) [µM] | GI50 (M14 melanoma) [µM] | TGI (M14 melanoma) [µM] | GI50 (SNB-75 CNS) [µM] | TGI (SNB-75 CNS) [µM] | GI50 (SN12C renal) [µM] | TGI (SN12C renal) [µM] | GI50 (UACC-257 melanoma) [µM] | TGI (UACC-257 melanoma) [µM] | GI50 (NCI-H23 lung) [µM] | TGI (NCI-H23 lung) [µM] | GI50 (NCI-H522 lung) [µM] | TGI (NCI-H522 lung) [µM] | GI50 (IGROV1 ovarian) [µM] | TGI (IGROV1 ovarian) [µM] | GI50 (SK-OV-3 ovarian) [µM] | TGI (SK-OV-3 ovarian) [µM]
CCCC(=O)Nc1c(I)cc(I)c(CC(CC)C(=O)O)c1I (stereo not given) | > 100 | > 100 | > 100 | > 100 | > 100 | > 100 | > 100 | > 100 | > 100 | > 100 | > 100 | > 100 | > 100 | > 100 | > 100 | > 100 | > 100 | > 100 | > 100 | > 100
CN=C(N)NC |  | > 100 |  | > 100 |  | > 100 |  | > 100 |  | > 100 |  | > 100 |  | > 100 |  | > 100 |  | > 100 |  | > 100
CC1(C)Oc2ccccc2[N+]([O-])=C1c1ccccc1 |  |  |  | > 100 |  | > 100 |  | > 100 |  | > 100 |  | > 100 |  | > 100 |  | > 100 |  | > 100 |  | > 100
CCOc1ccc(N=Cc2ccc3ccccc3n2)cc1 |  | > 100 |  | > 100 |  | > 100 |  | > 86.3 |  | > 100 |  | > 100 |  | > 100 |  | > 100 |  | > 100 |  | > 100
S=C1SCN(C2CCCCCCCCCCC2)CN1C1CCCCCCCCCCC1 |  | > 100 |  | > 100 |  | > 100 |  | > 100 |  | > 100 |  | > 100 |  | > 100 |  | > 100 |  | > 100 |  | > 100
CCCCCC(=C/c1ccccc1)/C=N/N=C(N)N | 1.74 | 3.69 | 1.74 | 3.54 | 1.56 | 3.09 | 1.35 | 2.7 |  |  | 1.45 | 2.83 | 1.47 | 3.12 |  |  | 1.32 | 2.72 | 2.95 | 10.8
C[C@@H]1OC(=O)NN=C1c1ccc(-c2ccc(F)cc2)c(C(F)(F)F)c1 | 5.02 | 21.6 | 12.7 | 31.1 | 7.14 | 21.6 | 5 | 20.4 | 5.63 | 21.8 | 3.72 | 19.2 | 7.17 | 21.2 | 2.72 | 14.5 | 14.2 | 29.9 | 12.6 | 27.5
C[C@@]1(O)CCC[C@H]1n1c(=O)c(C(F)F)cc2cnc(NC3CCN(S(C)(=O)=O)CC3)nc21 | 1.21 | > 100 | 2.11 | > 100 | 1.75 | 7.62 | 0.223 | 2.38 | 2.66 | > 100 | 2.31 | 22.8 | 1.43 | 6.69 | 2.66 | 15.3 | 1.38 | 43.7 |  | 
CC1(C)OC2COC(c3[nH]nc4c(=O)[nH]c(=O)[nH]c34)C2O1 (stereo not given) |  | > 100 |  | > 100 |  | > 100 |  |  |  | > 100 |  | > 100 |  | > 100 |  | > 100 |  | > 100 |  | > 100
COC(=O)C1=C(O)c2cc3c(cc2[C@H](c2cc(OC)c(OC)c(OC)c2)C1)OCO3 |  | > 100 |  | > 100 |  | > 100 |  | > 100 |  | > 100 |  | 95.1 |  | > 100 |  |  |  | 89.4 |  | > 100
CC1=CC2=C(C#N)C(=O)OC2(C)C(c2ccccc2)C1 (stereo not given) |  | > 100 |  | > 100 |  | > 100 |  | > 100 |  | > 100 |  | > 100 |  |  |  | > 100 |  | > 100 |  | > 100
C=C1C(=O)O[C@H]2[C@H]1CC/C(Cn1cc(-c3ccsc3)nn1)=C\CC[C@@]1(C)O[C@@H]21 | 2.29 | 7.13 | 2.96 | 11 | 1.93 | 5.02 | 3.23 | 18.2 | 2.45 | 7.33 |  |  | 1.82 | 4 | 1.39 | 3.17 | 1.92 | 5.03 | 17.4 | 31.4
O=c1c(-c2nc3ccccc3[nH]2)cc2ccccc2n1Cc1cn(Cc2ccccc2Cl)nn1 | 2.1 | 4.78 | 2.56 | 9.27 | 2.65 | 9.33 | 1.36 | 3.2 | 1.87 | 3.75 | 3.18 | 12.6 | 3.43 | 24.3 | 2.24 | 7.98 |  |  |  | 
CC(=Nc1ccccc1)C1=C(O)C(Cc2ccc(F)cc2)NC1=O (stereo not given) | 5.21 | > 100 | 2.73 | > 100 | 0.435 | > 100 |  |  | 5.76 | > 100 | > 100 | > 100 | 1.71 | > 100 | 0.237 | 2.1 | 1.71 | > 100 | 1.23 | 9.01
CNC(=S)N(C1CCCCC1)C1CCCCC1 |  | > 100 |  | > 100 |  | > 100 |  | > 100 |  | > 100 |  | > 100 |  | > 100 |  |  |  | > 100 |  | > 100
CCCCCCC(O)C(O)CCC(O)C1CCC(CCCCC(O)CC2=CC(C)OC2=O)O1 (stereo not given) | 23.7 | 46.2 |  | 6.65 | 17.7 | 36 | 24.1 | 60.8 | 16.2 | 34 | 3.16 | 41.9 | 2.86 | 40.1 |  | 22.8 |  |  |  | 
